Data taken from US20120282242A1 (priority 2002, published 2012).
“And” between values parts separate entries of the source, which are not always exact repeats. Equal entries are not always repeated. “Also recorded” adds a separate entry of the source.

Legend:
eye muscles = conditions: in vivo
[1] = test system: eyelid muscles (Riolan's muscle, orbicularis muscle); design: species or system human; conditions: in vivo
glaucoma patients [2] = conditions: human, in vivo
glaucoma patients [3] = test system: glaucoma patients; design: species or system human; conditions: in vivo
[4] = test system: primary cultures of spinal cord neurons; conditions: cited from earlier work
glaucoma patients [5] = conditions: human, in vivo; remark: listed apart in the source
[6] = test system: brain synaptosome preparations; conditions: cited from earlier work

Compound: NCC1(CC(=O)O)CCCCC1 [Gabapentin]
- therapeutic effect (eye muscles): achieved therapeutic effect

Compound: COc1cccc2c1C(=O)c1c(O)c3c(c(O)c1C2=O)C[C@@](O)(C(=O)CO)C[C@@H]3O[C@H]1C[C@H](N)[C@H](O)[C@H](C)O1 [doxorubicin]
- effect on eye muscles (eye muscles): reduce the strength of eye muscles
- reducing and modulating muscle volume and muscle contraction (eye muscles): have proven to be effective

Compound: CCN(CC)CC(=O)Nc1c(C)cccc1C [lidocaine, Diethylaminoacet-2,6-xylidide]
- modulation of muscle action (eye muscles; iv): promotes the desired effect, but the effect is short lived

Compound: COc1ccc(CCN(C)CCCC(C#N)(c2ccc(OC)c(OC)c2)C(C)C)cc1OC (stereo not drawn) [verapamil]
- therapeutic effect (eye muscles): causes desired therapeutic effect

Compound: botulinum toxin
- baseline eye pressure after injection [1]: A reduction of baseline eye pressure was also noted
- decrease in eye pressure per spike per blink [1]: more than 5 mm Hg
- lower increase in eye pressure during forceful squeezing of the eyelids compared with control [1]: ~50%
- reduction in eye pressure after forceful closure of the eyes [1]: ~35%
- spike in pressure during blinking measured by LMD [1]: 25 mm Hg and 20 mm Hg
- Outcome: VF progression (glaucoma patients [2]): no VF progression; also recorded: minimal VF progression
- Outcome: progression of diabetic retinopathy (glaucoma patients [2]): No progression of diabetic retinopathy
- disturbance of lid function / subjective complaints (glaucoma patients [3]): did not lead to any apparent disturbance of lid function
- evoked release of glutamate [4]: inhibits the evoked release of glutamate
- 12 week period average reduction of baseline eye pressure (glaucoma patients [5]): 16%
- % IOP reduction (glaucoma patients [5]): 16.6% and 11.5%
- % reduction IOP (glaucoma patients [5]): 12.5% and 10% and 7%
- IOP post Rx during first 3 Rx (glaucoma patients [5]): 26 and 24 and 23
- IOP reduction (glaucoma patients [5]): 10.5% and 14%
- reduction of IOP in the treated eye (glaucoma patients [5]): no reduction of IOP
- release of acetylcholine and glutamate [6]: inhibits the release of both neurotransmitters
